Assay results taken from patent US20230391772A1, “METHODS AND COMPOSITIONS FOR TARGETED PROTEIN DEGRADATION” (Ranok Therapeutics (Hangzhou) Co. Ltd., priority 2020, published 2023).

Assays:
[1] = test system: MIA PaCa-2 human pancreatic carcinoma; assay: MIA PaCa-2 CCK-8 proliferation assay; assay type: cell-based; conditions: Homo sapiens, MIA PaCa-2, 72 h, MIA PaCa-2 cells
Procedure, shortened: (§1)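 Three KRAS(G12C) lines are used, MIA PaCa-2 at two mutant copies and the NSCLC lines NCI-H358 and NCI-H23 at one. Each compound is titrated 3-fold from 20 μM to 1.02 nM, and proliferation is scored by CCK-8.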

[2] = test system: NCI-H23 human non-small cell lung cancer; assay: NCI-H23 CCK-8 proliferation assay; assay type: cell-based; conditions: NCI-H23 cells, 72 hr
Procedure, shortened: as §1

KRAS(G12C) = KRAS(G12C) (Homo sapiens, UniProt P01116, G12C); assay: KRAS(G12C)/SOS1 homogeneous time-resolved fluorescence (HTRF) assay; set-up: purchased Cisbio 63ADK000CB16PEG; conditions: absence of GTP, 4° C. for 3 hr, read-out: KRAS (G12C) binding
Chain of KRAS(G12C) (P01116 1-188 isoform P01116-2 G12C): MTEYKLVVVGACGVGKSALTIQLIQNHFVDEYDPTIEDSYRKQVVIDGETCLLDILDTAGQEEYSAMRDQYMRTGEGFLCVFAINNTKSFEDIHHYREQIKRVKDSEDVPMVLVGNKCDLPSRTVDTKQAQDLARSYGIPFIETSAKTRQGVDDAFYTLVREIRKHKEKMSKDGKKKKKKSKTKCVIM
Procedure, shortened: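 Three-hour incubation at 4 °C of 3-fold compound dilutions (lowest 1.02 nM) with KRAS(G12C), SOS1 and detection reagents, GTP absent. Disruption of the KRAS(G12C)/SOS1 complex detected by time-resolved fluorescence.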

HSP90a protein = molecular target: T1, HSP90a protein (Homo sapiens, UniProt P07900); assay: HSP90α-binding fluorescent polarization (FP) assay, BODIPY-labeled RNK04010 probe; conditions: FP competition with RNK04010 (BODIPY-labeled), 5 nM, 300 min at 25° C.
T1 construct: purchased BPS Bioscience 50298
Procedure, shortened: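 Binding was scored by fluorescence polarization after adding N-terminal HSP90a to wells holding probe and compound, with compound tested from 20 μM to 5.2 nM. Probe-dependent times at 25° C were 120 min for FITC-geldanamycin and 300 min for RNK04010-BODIPY, both at 5 nM final.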

[3] = test system: NCI-H358 human non-small cell lung cancer; assay: NCI-H358 CCK-8 proliferation assay; assay type: cell-based; conditions: NCI-H358 cells, 72 hr
Procedure, shortened: as §1

| SMILES | EC50 [1] | EC50 [2] | IC50 (KRAS(G12C)) | IC50 (HSP90a protein) | EC50 [3] |
| --- | --- | --- | --- | --- | --- |
| C=CC(=O)N1CCN(c2nc(NCCC(=O)N3CCC(CN4CCN(Cc5ccc(-n6c(O)nnc6-c6cc(C(C)C)c(O)cc6O)cc5)CC4)CC3)nc3c2CCN(c2cc(O)cc4ccccc24)C3)CC1 [Compound 14, 1-(4-(2-((3-(4-((4-(4-(3-(2,4-dihydroxy-5-isopropylphenyl)-5-hydroxy-4H-1,2,4-triazol-4-yl)benzyl)piperazin-1-yl)methyl)piperidin-1-yl)-3-oxopropyl)amino)-7-(3-hydroxynaphthalen-1-yl)-5,6,7,8-tetrahydropyrido[3,4-d]pyrimidin-4-yl)piperazin-1-yl)prop-2-en-1-one, trifluoroacetic acid] | > 1 µM | > 1 µM | > 1 µM | < 0.1 µM | 0.1 to 1 µM |
| CC(=O)N1CCN(c2nc(NCCC(=O)NCc3ccc(CN4CCC(Cc5ccc(-n6c(C(=O)NCC(F)(F)F)nnc6-c6cc(C(C)C)c(O)cc6O)cc5)CC4)cc3)nc3c2CCN(c2cc(O)cc4ccccc24)C3)CC1 [Compound 54, 4-(4-((1-(4-((3-((4-(4-acetylpiperazin-1-yl)-7-(3-hydroxynaphthalen-1-yl)-5,6,7,8-tetrahydropyrido[3,4-d]pyrimidin-2-yl)amino)propanamido)methyl)benzyl)piperidin-4-yl)methyl)phenyl)-5-(2,4-dihydroxy-5-isopropylphenyl)-N-(2,2,2-trifluoroethyl)-4H-1,2,4-triazole-3-carboxamide, trifluoroacetic acid] | < 0.1 µM | 0.1 to 1 µM | > 1 µM | 0.1 to 1 µM | 0.1 to 1 µM |
| CCc1cc(-c2nnc(C(=O)NC(C)C)n2-c2ccc(CN3CCN(CC4CCN(C(=O)CCNc5nc6c(c(N7CCN(C(C)=O)CC7)n5)CCN(c5cc(O)cc7ccccc57)C6)CC4)CC3)cc2)c(O)cc1O [Compound 55, 4-(4-((4-((1-(3-((4-(4-acetylpiperazin-1-yl)-7-(3-hydroxynaphthalen-1-yl)-5,6,7,8-tetrahydropyrido[3,4-d]pyrimidin-2-yl)amino)propanoyl)piperidin-4-yl)methyl)piperazin-1-yl)methyl)phenyl)-5-(5-ethyl-2,4-dihydroxyphenyl)-N-isopropyl-4H-1,2,4-triazole-3-carboxamide, trifluoroacetic acid] | – | 0.1 to 1 µM | > 1 µM | < 0.1 µM | 0.1 to 1 µM |
| C=CC(=O)N1CCN(c2nc(NCCC(=O)NCCc3ccc(CN4CCC(Cc5ccc(-n6c(C(=O)NCC(F)(F)F)nnc6-c6cc(C(C)C)c(O)cc6O)cc5)CC4)cc3)nc3c2CCN(c2cc(O)cc4ccccc24)C3)CC1 [Compound 24, 4-(4-((1-(4-(2-(3-((4-(4-acryloylpiperazin-1-yl)-7-(3-hydroxynaphthalen-1-yl)-5,6,7,8-tetrahydropyrido[3,4-d]pyrimidin-2-yl)amino)propanamido)ethyl)benzyl)piperidin-4-yl)methyl)phenyl)-5-(2,4-dihydroxy-5-isopropylphenyl)-N-(2,2,2-trifluoroethyl)-4H-1,2,4-triazole-3-carboxamide, trifluoroacetic acid] | 0.1 to 1 µM | > 1 µM | > 1 µM | 0.1 to 1 µM | 0.1 to 1 µM |
| C=CC(=O)N1CCN(c2nc(NCCC(=O)N3CCC(CN4CCN(Cc5ccc(-n6c(C(=O)NCC(F)(F)F)nnc6-c6cc(CC)c(O)cc6O)cc5)CC4)CC3)nc3c2CCN(c2cccc4ccccc24)C3)C[C@H]1CC#N [Compound 76, (R)-4-(4-((4-((1-(3-((4-(4-acryloyl-3-(cyanomethyl)piperazin-1-yl)-7-(naphthalen-1-yl)-5,6,7,8-tetrahydropyrido[3,4-d]pyrimidin-2-yl)amino)propanoyl)piperidin-4-yl)methyl)piperazin-1-yl)methyl)phenyl)-5-(5-ethyl-2,4-dihydroxyphenyl)-N-(2,2,2-trifluoroethyl)-4H-1,2,4-triazole-3-carboxamide, trifluoroacetic acid] | – | 0.1 to 1 µM | > 1 µM | 0.1 to 1 µM | 0.1 to 1 µM |
| C=CC(=O)N1CCN(c2nc(NCCC(=O)N3CCC(CN4CCN(Cc5ccc(-n6c(C(=O)NCC(F)(F)F)nnc6-c6cc(CC)c(O)cc6O)cc5)CC4)CC3)nc3c2CCN(c2cc(O)cc4ccccc24)C3)CC1 [Compound 17, 4-(4-((4-((1-(3-((4-(4-acryloylpiperazin-1-yl)-7-(3-hydroxynaphthalen-1-yl)-5,6,7,8-tetrahydropyrido[3,4-d]pyrimidin-2-yl)amino)propanoyl)piperidin-4-yl)methyl)piperazin-1-yl)methyl)phenyl)-5-(5-ethyl-2,4-dihydroxyphenyl)-N-(2,2,2-trifluoroethyl)-4H-1,2,4-triazole-3-carboxamide, trifluoroacetic acid] | – | 0.1 to 1 µM | > 1 µM | 0.1 to 1 µM | 0.1 to 1 µM |
